Key:
Experiment in all cases: relative viability (nuclei count vs DMSO), 5 days (fraction); higher = more cells survive
[1] = tested on: ABC-1
Procedure, shortened: (§1)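 Lung cancer cell lines were seeded in 1536-well plates and dosed by pin tool the next day, with either a single drug or a fixed anchor-drug dose combined with five library-drug doses (not always all listed) spaced in √10 steps. Five days later, one step fixed the cells and stained their nuclei (final 0.05% Triton X-100, 1% formaldehyde, 1 ug/ml Hoechst), and nuclei were counted on 4× images. Relative viability is the nuclei count in treated wells divided by the count in vehicle wells, and each value is the median of duplicate plates.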

[2] = tested on: ChaGo-K-1
Procedure, shortened: as §1

[3] = tested on: HCC-78
Procedure, shortened: as §1

[4] = tested on: HOP-62
Procedure, shortened: as §1

[5] = tested on: LCLC-97TM1
Procedure, shortened: as §1

[6] = tested on: LOU-NH91
Procedure, shortened: as §1

[7] = tested on: NCI-H1355
Procedure, shortened: as §1

[8] = tested on: NCI-H1437
Procedure, shortened: as §1

[9] = tested on: NCI-H1755
Procedure, shortened: as §1

[10] = tested on: NCI-H1792
Procedure, shortened: as §1

[11] = tested on: NCI-H2009
Procedure, shortened: as §1

[12] = tested on: NCI-H2023
Procedure, shortened: as §1

[13] = tested on: NCI-H2085
Procedure, shortened: as §1

[14] = tested on: NCI-H23
Procedure, shortened: as §1

[15] = tested on: NCI-H2405
Procedure, shortened: as §1

[16] = tested on: NCI-H322M
Procedure, shortened: as §1

[17] = tested on: NCI-H441
Procedure, shortened: as §1

[18] = tested on: NCI-H650
Procedure, shortened: as §1

[19] = tested on: NCI-H727
Procedure, shortened: as §1

[20] = tested on: RERF-LC-KJ
Procedure, shortened: as §1

[21] = tested on: UMC-11
Procedure, shortened: as §1

## O=c1[nH]c2ccccc2n1C1CCN(CCCC(c2ccc(F)cc2)c2ccc(F)cc2)CC1 [Pimozide] + CC(C)C[C@H](NC(=O)[C@H](Cc1ccccc1)NC(=O)c1cnccn1)B(O)O [Bortezomib] (partner 0.002 µM)
[1]; first compound 0.08 µM
  relative viability: 0.289
[1]; first compound 0.253 µM
  relative viability: 0.284
[1]; first compound 0.8 µM
  relative viability: 0.34
[1]; first compound 2.53 µM
  relative viability: 0.227
[1]; first compound 8 µM
  relative viability: 0.26
[2]; first compound 0.08 µM
  relative viability: 1.01
[2]; first compound 0.253 µM
  relative viability: 0.883
[2]; first compound 0.8 µM
  relative viability: 0.977
[2]; first compound 2.53 µM
  relative viability: 1.01
[2]; first compound 8 µM
  relative viability: 0.872
[3]; first compound 0.08 µM
  relative viability: 0.408
[3]; first compound 0.253 µM
  relative viability: 0.417
[3]; first compound 0.8 µM
  relative viability: 0.409
[3]; first compound 2.53 µM
  relative viability: 0.443
[3]; first compound 8 µM
  relative viability: 0.336
[4]; first compound 0.08 µM
  relative viability: 0.935
[4]; first compound 0.253 µM
  relative viability: 0.889
[4]; first compound 2.53 µM
  relative viability: 0.749
[4]; first compound 8 µM
  relative viability: 1.02
[5]; first compound 0.08 µM
  relative viability: 0.526
[5]; first compound 0.253 µM
  relative viability: 0.637
[5]; first compound 0.8 µM
  relative viability: 0.574
[5]; first compound 2.53 µM
  relative viability: 0.353
[5]; first compound 8 µM
  relative viability: 0.616
[6]; first compound 0.08 µM
  relative viability: 0.498
[6]; first compound 0.253 µM
  relative viability: 0.528
[6]; first compound 0.8 µM
  relative viability: 0.529
[6]; first compound 2.53 µM
  relative viability: 0.504
[6]; first compound 8 µM
  relative viability: 0.479
[7]; first compound 0.08 µM
  relative viability: 1.18
[7]; first compound 0.253 µM
  relative viability: 1.2
[7]; first compound 0.8 µM
  relative viability: 1.05
[7]; first compound 2.53 µM
  relative viability: 1.19
[7]; first compound 8 µM
  relative viability: 1.19
[8]; first compound 0.08 µM
  relative viability: 0.492
[8]; first compound 0.253 µM
  relative viability: 0.45
[8]; first compound 0.8 µM
  relative viability: 0.423
[8]; first compound 2.53 µM
  relative viability: 0.507
[8]; first compound 8 µM
  relative viability: 0.403
[9]; first compound 0.08 µM
  relative viability: 0.881
[9]; first compound 0.253 µM
  relative viability: 0.91
[9]; first compound 0.8 µM
  relative viability: 0.844
[9]; first compound 2.53 µM
  relative viability: 0.937
[9]; first compound 8 µM
  relative viability: 0.674
[10]; first compound 0.08 µM
  relative viability: 0.951
[10]; first compound 0.253 µM
  relative viability: 0.939
[10]; first compound 0.8 µM
  relative viability: 0.894
[10]; first compound 2.53 µM
  relative viability: 0.875
[10]; first compound 8 µM
  relative viability: 0.976
[11]; first compound 0.08 µM
  relative viability: 0.999
[11]; first compound 0.253 µM
  relative viability: 0.999
[11]; first compound 0.8 µM
  relative viability: 0.879
[11]; first compound 2.53 µM
  relative viability: 0.888
[11]; first compound 8 µM
  relative viability: 0.769
[12]; first compound 0.08 µM
  relative viability: 0.973
[12]; first compound 0.253 µM
  relative viability: 0.996
[12]; first compound 0.8 µM
  relative viability: 0.74
[12]; first compound 2.53 µM
  relative viability: 0.884
[12]; first compound 8 µM
  relative viability: 0.581
[13]; first compound 0.08 µM
  relative viability: 0.972
[13]; first compound 0.253 µM
  relative viability: 1.01
[13]; first compound 0.8 µM
  relative viability: 1.04
[13]; first compound 2.53 µM
  relative viability: 1.13
[13]; first compound 8 µM
  relative viability: 0.741
[14]; first compound 0.08 µM
  relative viability: 0.883
[14]; first compound 0.253 µM
  relative viability: 1.04
[14]; first compound 0.8 µM
  relative viability: 1.02
[14]; first compound 2.53 µM
  relative viability: 0.757
[14]; first compound 8 µM
  relative viability: 0.908
[15]; first compound 0.08 µM
  relative viability: 0.761
[15]; first compound 0.253 µM
  relative viability: 0.979
[15]; first compound 0.8 µM
  relative viability: 0.979
[15]; first compound 2.53 µM
  relative viability: 0.896
[15]; first compound 8 µM
  relative viability: 0.984
[16]; first compound 0.253 µM
  relative viability: 1.26
[16]; first compound 0.8 µM
  relative viability: 1.18
[16]; first compound 2.53 µM
  relative viability: 1.16
[16]; first compound 8 µM
  relative viability: 1.09
[17]; first compound 0.08 µM
  relative viability: 0.692
[17]; first compound 0.253 µM
  relative viability: 0.366
[17]; first compound 0.8 µM
  relative viability: 0.325
[17]; first compound 2.53 µM
  relative viability: 0.451
[17]; first compound 8 µM
  relative viability: 0.336
[18]; first compound 0.08 µM
  relative viability: 0.797
[18]; first compound 0.253 µM
  relative viability: 0.787
[18]; first compound 0.8 µM
  relative viability: 0.704
[18]; first compound 2.53 µM
  relative viability: 0.718
[18]; first compound 8 µM
  relative viability: 0.747
[19]; first compound 0.08 µM
  relative viability: 0.729
[19]; first compound 0.253 µM
  relative viability: 0.788
[19]; first compound 0.8 µM
  relative viability: 0.884
[19]; first compound 2.53 µM
  relative viability: 0.733
[19]; first compound 8 µM
  relative viability: 0.868
[20]; first compound 0.08 µM
  relative viability: 1.1
[20]; first compound 0.253 µM
  relative viability: 0.92
[20]; first compound 0.8 µM
  relative viability: 0.949
[20]; first compound 2.53 µM
  relative viability: 1.02
[20]; first compound 8 µM
  relative viability: 0.92
[21]; first compound 0.08 µM
  relative viability: 0.716
[21]; first compound 0.253 µM
  relative viability: 0.802
[21]; first compound 0.8 µM
  relative viability: 0.686
[21]; first compound 2.53 µM
  relative viability: 0.772
[21]; first compound 8 µM
  relative viability: 0.52

## Cc1cnc(-c2cnc(NCCNc3ccc(C#N)cn3)nc2-c2ccc(Cl)cc2Cl)[nH]1 + CC(C)C[C@H](NC(=O)[C@H](Cc1ccccc1)NC(=O)c1cnccn1)B(O)O [Bortezomib] (partner 0.002 µM)
[1]; first compound 0.08 µM
  relative viability: 0.343
[1]; first compound 0.253 µM
  relative viability: 0.257
[1]; first compound 0.8 µM
  relative viability: 0.347
[1]; first compound 2.53 µM
  relative viability: 0.252
[2]; first compound 0.08 µM
  relative viability: 1.07
[2]; first compound 0.253 µM
  relative viability: 0.886
[2]; first compound 0.8 µM
  relative viability: 0.598
[2]; first compound 2.53 µM
  relative viability: 0.991
[3]; first compound 0.08 µM
  relative viability: 0.645
[3]; first compound 0.253 µM
  relative viability: 0.457
[3]; first compound 0.8 µM
  relative viability: 0.443
[3]; first compound 2.53 µM
  relative viability: 0.41
[4]; first compound 0.08 µM
  relative viability: 1.18
[4]; first compound 0.253 µM
  relative viability: 0.772
[4]; first compound 0.8 µM
  relative viability: 0.875
[4]; first compound 2.53 µM
  relative viability: 0.907
[5]; first compound 0.08 µM
  relative viability: 0.844
[5]; first compound 0.253 µM
  relative viability: 0.647
[5]; first compound 0.8 µM
  relative viability: 0.709
[5]; first compound 2.53 µM
  relative viability: 0.362
[6]; first compound 0.08 µM
  relative viability: 0.488
[6]; first compound 0.253 µM
  relative viability: 0.519
[6]; first compound 0.8 µM
  relative viability: 0.491
[6]; first compound 2.53 µM
  relative viability: 0.491
[7]; first compound 0.08 µM
  relative viability: 1.29
[7]; first compound 0.253 µM
  relative viability: 0.961
[7]; first compound 0.8 µM
  relative viability: 1.04
[7]; first compound 2.53 µM
  relative viability: 1.15
[8]; first compound 0.08 µM
  relative viability: 0.536
[8]; first compound 0.253 µM
  relative viability: 0.475
[8]; first compound 0.8 µM
  relative viability: 0.451
[8]; first compound 2.53 µM
  relative viability: 0.472
[9]; first compound 0.08 µM
  relative viability: 1.02
[9]; first compound 0.253 µM
  relative viability: 0.889
[9]; first compound 0.8 µM
  relative viability: 0.828
[9]; first compound 2.53 µM
  relative viability: 0.994
[10]; first compound 0.08 µM
  relative viability: 0.89
[10]; first compound 0.253 µM
  relative viability: 0.657
[10]; first compound 0.8 µM
  relative viability: 0.876
[10]; first compound 2.53 µM
  relative viability: 0.915
[11]; first compound 0.08 µM
  relative viability: 1.02
[11]; first compound 0.253 µM
  relative viability: 0.682
[11]; first compound 0.8 µM
  relative viability: 1.07
[11]; first compound 2.53 µM
  relative viability: 0.891
[12]; first compound 0.08 µM
  relative viability: 1.44
[12]; first compound 0.253 µM
  relative viability: 0.651
[12]; first compound 0.8 µM
  relative viability: 1.01
[12]; first compound 2.53 µM
  relative viability: 0.978
[13]; first compound 0.08 µM
  relative viability: 1.12
[13]; first compound 0.253 µM
  relative viability: 1.17
[13]; first compound 0.8 µM
  relative viability: 0.957
[13]; first compound 2.53 µM
  relative viability: 1.02
[14]; first compound 0.08 µM
  relative viability: 1.13
[14]; first compound 0.253 µM
  relative viability: 0.846
[14]; first compound 0.8 µM
  relative viability: 1.16
[14]; first compound 2.53 µM
  relative viability: 1.13
[15]; first compound 0.08 µM
  relative viability: 0.68
[15]; first compound 0.253 µM
  relative viability: 1.02
[15]; first compound 0.8 µM
  relative viability: 0.967
[15]; first compound 2.53 µM
  relative viability: 0.98
[16]; first compound 0.08 µM
  relative viability: 1.13
[16]; first compound 0.253 µM
  relative viability: 1.1
[16]; first compound 0.8 µM
  relative viability: 1.22
[16]; first compound 2.53 µM
  relative viability: 1.31
[17]; first compound 0.08 µM
  relative viability: 0.688
[17]; first compound 0.253 µM
  relative viability: 0.352
[17]; first compound 0.8 µM
  relative viability: 0.707
[17]; first compound 2.53 µM
  relative viability: 0.617
[18]; first compound 0.08 µM
  relative viability: 0.707
[18]; first compound 0.253 µM
  relative viability: 0.819
[18]; first compound 0.8 µM
  relative viability: 0.838
[18]; first compound 2.53 µM
  relative viability: 0.744
[19]; first compound 0.08 µM
  relative viability: 0.877
[19]; first compound 0.253 µM
  relative viability: 0.808
[19]; first compound 0.8 µM
  relative viability: 0.982
[19]; first compound 2.53 µM
  relative viability: 0.889
[20]; first compound 0.08 µM
  relative viability: 1.27
[20]; first compound 0.253 µM
  relative viability: 1
[20]; first compound 0.8 µM
  relative viability: 0.804
[20]; first compound 2.53 µM
  relative viability: 0.931
[21]; first compound 0.08 µM
  relative viability: 0.759
[21]; first compound 0.253 µM
  relative viability: 0.595
[21]; first compound 0.8 µM
  relative viability: 0.516
[21]; first compound 2.53 µM
  relative viability: 0.659

Reference: the supplement of paper PMC10307832
